Laboratory results: patent US11066443B2 (Hoffmann-La Roche Inc., priority 2017, dated 2021)

The compounds below were run on P. aeruginosa NCTC11454 (assay: Antimicrobial susceptibility testing: 50% growth inhibitory concentration (IC50) determination). Conditions: Pseudomonas aeruginosa, Iso-Sensitest broth, OD 600 nm every 20 minutes over 16h, growth inhibition during logarithmic growth.
Type: cell-based
Description: The in vitro antimicrobial activity of the compounds was alternatively determined according to the following procedure: The assay used a 10-points Iso-Sensitest broth medium to measure quantitatively the in vitro activity of the compounds against P. aeruginosa NCTC11454. Stock compounds in DMSO were serially twofold diluted (e.g. range from 50 to 0.097 μM final concentration) in 384 wells microtiter plates and inoculated with 49 μl the bacterial suspension in Iso-Sensitest medium to have a final cell concentration of ˜5×10^(5) CFU/ml in a final volume/well of 50 ul/well. Microtiter plates were incubated at 35±2° C. Bacterial cell growth was determined with the measurement of optical density at λ=600 nm each 20 minutes over a time course of 16h. Growth inhibition was calculated during the logarithmic growth of the bacterial cells with determination of the concentration inhibiting 50% (IC50) and 90% (IC90) of the growth. Table 2 provides the 50% growth inhibitory concentrations (IC50) in micromoles per liter of the compounds of present invention obtained against P. aeruginosa NCTC11454.

Compound | IC50
CN1C(=O)[C@H](CCCCN)NC(=O)[C@H](CCCN)NCc2ccccc2Sc2ccc(Cl)cc2CNC(=O)[C@@H]1Cc1c[nH]c2ccccc12 [Example 1, (12S,15S,18S)-15-(4-Amino-butyl)-18-(3-amino-propyl)-6-chloro-12-(1H-indol-3-ylmethyl)-13-methyl-2-thia-10,13,16,19-tetraaza-tricyclo[19.4.0.0*3,8*]pentacosa-1(21),3,5,7,22,24-hexaene-11,14,17-trione] | 32 µM
CN1C(=O)[C@H](CCCCN)NC(=O)[C@H](CCCN)NCc2ccccc2Sc2cc(C(F)(F)F)ccc2CNC(=O)[C@@H]1Cc1c[nH]c2ccccc12 [Example 4, (12S,15S,18S)-15-(4-Amino-butyl)-18-(3-amino-propyl)-12-(1H-indol-3-ylmethyl)-13-methyl-5-trifluoromethyl-2-thia-10,13,16,19-tetraaza-tricyclo[19.4.0.0*3,8*]pentacosa-1(21),3,5,7,22,24-hexaene-11,14,17-trione] | 12.6 µM
CN1C(=O)[C@H](CCCCN)NC(=O)[C@H](CCCN)NCc2ccccc2Sc2ccccc2CNC(=O)[C@@H]1Cc1c[nH]c2cc(Cl)ccc12 [Example 5, (12S,15S,18S)-15-(4-Amino-butyl)-18-(3-amino-propyl)-12-(6-chloro-1H-indol-3-ylmethyl)-13-methyl-2-thia-10,13,16,19-tetraaza-tricyclo[19.4.0.0*3,8*]pentacosa-1(21),3,5,7,22,24-hexaene-11,14,17-trione] | 24.4 µM
CN1C(=O)[C@H](CCCCN)NC(=O)[C@H](CCCN)NCc2ccccc2Sc2ccc(Cl)cc2CNC(=O)[C@@H]1Cc1cn(C)c2ccccc12 [Example 6, (12S,15S,18S)-15-(4-Amino-butyl)-18-(3-amino-propyl)-6-chloro-13-methyl-12-(1-methyl-1H-indol-3-ylmethyl)-2-thia-10,13,16,19-tetraaza-tricyclo[19.4.0.0*3,8*]pentacosa-1(21),3,5,7,22,24-hexaene-11,14,17-trione] | 22.7 µM
CN1C(=O)[C@H](CCCCN)NC(=O)[C@H](CCCN)NCc2ccccc2Sc2ccc(Cl)cc2CNC(=O)[C@@H]1Cc1c[nH]c2cc(Cl)ccc12 [Example 7, (12S,15S,18S)-15-(4-Amino-butyl)-18-(3-amino-propyl)-6-chloro-12-(6-chloro-1H-indol-3-ylmethyl)-13-methyl-2-thia-10,13,16,19-tetraaza-tricyclo[19.4.0.0*3,8*]pentacosa-1(21),3,5,7,22,24-hexaene-11,14,17-trione] | 7.62 µM
CN1C(=O)[C@H](CCCCN)NC(=O)[C@H](CCCN)NCc2ccccc2Sc2ccc(Cl)cc2CNC(=O)[C@@H]1Cc1cn(C)c2cc(Cl)ccc12 [Example 8, (12S,15S,18S)-15-(4-Amino-butyl)-18-(3-amino-propyl)-6-chloro-12-(6-chloro-1-methyl-1H-indol-3-ylmethyl)-13-methyl-2-thia-10,13,16,19-tetraaza-tricyclo[19.4.0.0*3,8*]pentacosa-1(21),3,5,7,22,24-hexaene-11,14,17-trione] | 13.2 µM
CN1C(=O)[C@H](CCCCN)NC(=O)[C@H](CCCN)NCc2ccccc2Sc2ccc(Cl)c(Cl)c2CNC(=O)[C@@H]1Cc1c[nH]c2ccccc12 [Example 9, (12S,15S,18S)-15-(4-Amino-butyl)-18-(3-amino-propyl)-6,7-dichloro-12-(1H-indol-3-ylmethyl)-13-methyl-2-thia-10,13,16,19-tetraaza-tricyclo[19.4.0.0*3,8*]pentacosa-1(25),3,5,7,21,23-hexaene-11,14,17-trione] | 24.5 µM
CN1C(=O)[C@H](CCCCN)NC(=O)[C@H](CCCN)NCc2ccccc2Sc2c(Cl)ccc(C(F)(F)F)c2CNC(=O)[C@@H]1Cc1c[nH]c2ccccc12 [Example 10, (12S,15S,18S)-15-(4-Amino-butyl)-18-(3-amino-propyl)-4-chloro-12-(1H-indol-3-ylmethyl)-13-methyl-7-trifluoromethyl-2-thia-10,13,16,19-tetraaza-tricyclo[19.4.0.0*3,8*]pentacosa-1(25),3,5,7,21,23-hexaene-11,14,17-trione] | 10.7 µM
Cc1cc(Cl)cc2c1Sc1ccccc1CN[C@@H](CCCN)C(=O)N[C@@H](CCCCN)C(=O)N(C)[C@@H](Cc1c[nH]c3ccccc13)C(=O)NC2 [Example 14, (12S,15S,18S)-15-(4-Amino-butyl)-18-(3-amino-propyl)-6-chloro-12-(1H-indol-3-ylmethyl)-4,13-dimethyl-2-thia-10,13,16,19-tetraaza-tricyclo[19.4.0.0*3,8*]pentacosa-1(25),3,5,7,21,23-hexaene-11,14,17-trione] | 24.3 µM
CN1C(=O)[C@H](CCCCN)NC(=O)[C@H](CCCN)NCc2cccnc2Sc2c(cc(-c3ccccc3)cc2C(F)(F)F)CNC(=O)[C@@H]1Cc1c[nH]c2ccccc12 [Example 22, (11S,14S,17S)-14-(4-Amino-butyl)-11-(3-amino-propyl)-17-(1H-indol-3-ylmethyl)-16-methyl-23-phenyl-25-trifluoromethyl-2-thia-4,10,13,16,19-pentaaza-tricyclo[19.4.0.0*3,8*]pentacosa-1(25),3,5,7,21,23-hexaene-12,15,18-trione] | 10.1 µM
CN1C(=O)[C@H](CCCCN)NC(=O)[C@H](CCCN)NCc2ncccc2Sc2c(Cl)cc(C(F)(F)F)cc2CNC(=O)[C@@H]1Cc1c[nH]c2ccccc12 [Example 24, (11S,14S,17S)-14-(4-Amino-butyl)-11-(3-amino-propyl)-25-chloro-17-(1H-indol-3-ylmethyl)-16-methyl-23-trifluoromethyl-2-thia-7,10,13,16,19-pentaaza-tricyclo[19.4.0.0*3,8*]pentacosa-1(25),3,5,7,21,23-hexaene-12,15,18-trione] | 22.4 µM
NCCCC[C@@H]1NC(=O)[C@@H](CCCN)NCc2cccnc2Sc2c(ccc(-c3ccccc3)c2Cl)CNC(=O)[C@H](Cc2c[nH]c3ccccc23)NC1=O [Example 25, (11R,14S,17S)-14-(4-Amino-butyl)-11-(3-amino-propyl)-25-chloro-17-(1H-indol-3-ylmethyl)-24-phenyl-2-thia-4,10,13,16,19-pentaaza-tricyclo[9.4.0.0*3,8*]pentacosa-1(25),3,5,7,21,23-hexaene-12,15,18-trione] | 25.3 µM
NCCCC[C@@H]1NC(=O)[C@H](CCCN)NCc2cccnc2Sc2c(ccc(-c3ccccc3)c2Cl)CNC(=O)[C@H](Cc2c[nH]c3ccccc23)NC1=O [Example 26, (11S,14S,17S)-14-(4-Amino-butyl)-11-(3-amino-propyl)-25-chloro-17-(1H-indol-3-ylmethyl)-24-phenyl-2-thia-4,10,13,16,19-pentaaza-tricyclo[9.4.0.0*3,8*]pentacosa-1(25),3,5,7,21,23-hexaene-12,15,18-trione] | 23.7 µM
CN1C(=O)[C@H](CCCCN)NC(=O)[C@@H](CCCN)NCc2cccnc2Sc2c(ccc(-c3ccccc3)c2Cl)CNC(=O)[C@@H]1Cc1c[nH]c2ccccc12 [Example 27, (11R,14S,17S)-14-(4-Amino-butyl)-11-(3-amino-propyl)-25-chloro-17-(1H-indol-3-ylmethyl)-16-methyl-24-phenyl-2-thia-4,10,13,16,19-pentaaza-tricyclo[19.4.0.0*3,8*]pentacosa-1(25),3,5,7,21,23-hexaene-12,15,18-trione] | 11.3 µM
CN1C(=O)[C@H](CCCN)NC(=O)[C@H](CCCN)NCc2ccccc2Sc2c(Cl)cc(Cl)cc2CNC(=O)[C@@H]1Cc1c[nH]c2ccccc12 [Example 30, (12S,15S,18S)-15,18-Bis-(3-amino-propyl)-4,6-dichloro-12-(1H-indol-3-ylmethyl)-13-methyl-2-thia-10,13,16,19-tetraaza-tricyclo[19.4.0.0*3,8*]pentacosa-1(25),3,5,7,21,23-hexaene-11,14,17-trione] | 11.1 µM
CN1C(=O)[C@H](CCCCN)NC(=O)[C@H](CCCN)NCc2cccnc2Sc2c(Cl)ccc(C(F)(F)F)c2CNC(=O)[C@@H]1Cc1c[nH]c2ccc(Cl)cc12 [Example 31, (11S,14S,17S)-14-(4-Amino-butyl)-11-(3-amino-propyl)-25-chloro-17-(5-chloro-1H-indol-3-ylmethyl)-16-methyl-22-trifluoromethyl-2-thia-4,10,13,16,19-pentaaza-tricyclo[19.4.0.0*3,8*]pentacosa-1(25),3,5,7,21,23-hexaene-12,15,18-trione] | 25.4 µM
CN1C(=O)[C@H](CCCCN)NC(=O)[C@H](CCCN)NCc2ccccc2Sc2c(Cl)cc(-c3ccccc3)cc2CNC(=O)[C@@H]1Cc1c[nH]c2ccccc12 [Example 32, (12S,15S,18S)-15-(4-Amino-butyl)-18-(3-amino-propyl)-4-chloro-12-(1H-indol-3-ylmethyl)-13-methyl-6-phenyl-2-thia-111,13,16,19-tetraaza-tricyclo[19.4.0.0*3,8*]pentacosa-1(25),3,5,7,21,23-hexaene-11,14,17-trione] | 7.15 µM
CN1C(=O)[C@H](CCCCN)NC(=O)[C@H](CCCN)NCc2ccccc2Sc2c(Cl)cc(-c3ccccc3Cl)cc2CNC(=O)[C@@H]1Cc1c[nH]c2ccccc12 [Example 33, (12S,15S,18S)-15-(4-Amino-butyl)-18-(3-amino-propyl)-4-chloro-6-(2-chloro-phenyl)-12-(1H-indol-3-ylmethyl)-13-methyl-2-thia-10,13,16,19-tetraaza-tricyclo[19.4.0.0*3,8*]pentacosa-1(25),3,5,7,21,23-hexaene-11,14,17-trione] | 9.02 µM
